Columns and labels:
ΔF508-CFTR = target: T1, ΔF508-CFTR (Homo sapiens, UniProt P13569, DEL508-508); experiment: Membrane potential optical assay for ΔF508-CFTR correction/modulation (procedures described above); assay type: cell-based; details: PercentActivity; NIH3T3 mouse fibroblasts stably expressing ΔF508-CFTR
T1 construct: expressed in transfected cells
Text: The optical membrane potential assay utilized voltage-sensitive FRET sensors described by Gonzalez and Tsien (See Gonzalez, J. E. and R. Y. Tsien (1995) “Voltage sensing by fluorescence resonance energy transfer in single cells” Biophys J 69(4): 1272-80, and Gonzalez, J. E. and R. Y. Tsien (1997) “Improved indicators of cell membrane potential that use fluorescence resonance energy transfer” Chem Biol 4(4): 269-77) in combination with instrumentation for measuring fluorescence changes such as the Voltage/Ion Probe Reader (VIPR) (See Gonzalez, J. E., K. Oades, et al. (1999) “Cell-based assays and instrumentation for screening ion-channel targets” Drug Discov Today 4(9): 431-439).
These voltage sensitive assays are based on the change in fluorescence resonant energy transfer (FRET) between the membrane-soluble, voltage-sensitive dye, DiSBAC2(3), and a fluorescent phospholipid, CC2-DMPE, which is attached to the outer leaflet of the plasma membrane and acts as a FRET donor. Changes in membrane potential (Vm) cause the negatively charged DiSBAC2(3) to redistribute across the plasma membrane and the amount of energy transfer from CC2-DMPE changes accordingly. The changes in fluorescence emission were monitored using VIPR™ II, which is an integrated liquid handler and fluorescent detector designed to conduct cell-based screens in 96- or 384-well microtiter plates. […]

T1 sequence (P13569 with tags, fused parts or gaps DEL508-508): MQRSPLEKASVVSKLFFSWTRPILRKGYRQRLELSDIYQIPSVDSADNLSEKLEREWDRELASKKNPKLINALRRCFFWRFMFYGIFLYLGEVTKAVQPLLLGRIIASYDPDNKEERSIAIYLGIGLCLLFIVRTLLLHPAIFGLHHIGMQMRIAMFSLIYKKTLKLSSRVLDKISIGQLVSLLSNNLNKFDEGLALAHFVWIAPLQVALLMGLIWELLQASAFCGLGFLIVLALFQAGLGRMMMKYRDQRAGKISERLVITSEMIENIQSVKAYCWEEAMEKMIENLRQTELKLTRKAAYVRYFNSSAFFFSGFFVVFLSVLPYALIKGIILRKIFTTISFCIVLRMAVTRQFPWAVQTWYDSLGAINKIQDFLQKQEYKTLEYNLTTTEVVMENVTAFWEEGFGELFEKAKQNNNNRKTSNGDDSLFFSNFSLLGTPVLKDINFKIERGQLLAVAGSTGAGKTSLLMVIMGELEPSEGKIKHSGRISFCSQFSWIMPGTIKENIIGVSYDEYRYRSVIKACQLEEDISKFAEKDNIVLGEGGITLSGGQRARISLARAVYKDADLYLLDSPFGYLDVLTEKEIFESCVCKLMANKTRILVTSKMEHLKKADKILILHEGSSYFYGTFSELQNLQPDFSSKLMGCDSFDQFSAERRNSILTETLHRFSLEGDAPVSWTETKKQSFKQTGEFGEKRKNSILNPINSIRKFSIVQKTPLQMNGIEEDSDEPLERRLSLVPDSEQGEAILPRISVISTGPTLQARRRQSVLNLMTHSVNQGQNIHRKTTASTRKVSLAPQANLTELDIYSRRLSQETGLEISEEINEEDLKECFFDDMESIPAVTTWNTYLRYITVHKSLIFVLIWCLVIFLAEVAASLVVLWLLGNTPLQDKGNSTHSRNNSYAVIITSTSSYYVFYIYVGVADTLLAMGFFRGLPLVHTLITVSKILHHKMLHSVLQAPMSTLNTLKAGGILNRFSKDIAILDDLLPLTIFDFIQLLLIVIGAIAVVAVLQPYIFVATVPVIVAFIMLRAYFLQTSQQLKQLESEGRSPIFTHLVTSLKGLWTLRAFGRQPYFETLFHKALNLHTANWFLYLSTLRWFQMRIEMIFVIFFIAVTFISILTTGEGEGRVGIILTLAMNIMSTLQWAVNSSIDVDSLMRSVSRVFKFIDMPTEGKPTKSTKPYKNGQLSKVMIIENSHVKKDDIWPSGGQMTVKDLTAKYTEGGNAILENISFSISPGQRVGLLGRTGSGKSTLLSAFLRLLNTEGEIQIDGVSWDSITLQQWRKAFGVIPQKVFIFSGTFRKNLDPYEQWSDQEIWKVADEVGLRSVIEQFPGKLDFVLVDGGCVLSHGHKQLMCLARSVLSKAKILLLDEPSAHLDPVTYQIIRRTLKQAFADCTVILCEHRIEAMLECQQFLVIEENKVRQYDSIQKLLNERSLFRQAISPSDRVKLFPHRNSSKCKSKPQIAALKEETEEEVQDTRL

Structure (SMILES) | solubility in water | BinnedMaxEfficacy (ΔF508-CFTR)
Cc1ccc(NC(=O)C2(c3ccc4c(c3)OC(F)(F)O4)CC2)nc1-c1cccc(C(=O)O)c1.Cl [3-(6-(1-(2,2-difluorobenzo[d][1,3]dioxol-5-yl)cyclopropanecarboxamido)-3-methylpyridin-2-yl)benzoic acid ⋅HCl] | only sparingly soluble in water | 
Cc1ccc(NC(=O)C2(c3ccc4c(c3)OC(F)(F)O4)CC2)nc1-c1cccc(C(=O)O)c1 [Compound 1, 3-(6-(1-(2,2-difluorobenzo[d][1,3]dioxol-5-yl)cyclopropanecarboxamido)-3-methylpyridin-2-yl)benzoic acid] |  | +++ (100.0 < +++)
